How the values were obtained:
[1] = test system: α-cortisol antibodies; assay: Fluorescence quenching of cortisol-4-Fl with cortisol antibody (Example 28); assay type: binding
Description: The cortisol-4-FL was combined with various equivalents of various a-cortisol antibodies commercially available from HyTest (of Turku, Finland), Abcam (of Cambridge, United Kingdom), and Bio-Connect BV (Fitzgerald Industries) (of the Netherlands). The fluorescence was measured as a function of the ratio of antibody (Ab) to cortisol-4-FL. The results are depicted in FIG. 21.

[2] = molecular target: streptavidin (Streptomyces avidinii, UniProt P22629); assay: Fluorescence of Biotin-F or Biotin-ED in the presence of streptavidin (Example 19); assay type: binding; conditions: saturation point, 1:1 molar ratio streptavidin to tracer
Description: Biotin-F or Biotin-ED (commercially available from Thermo Scientific of Waltham, MA) was dissolved in DMSO to provide a DMSO solution (8.5 μM). The structure of biotin ED is
The DMSO solution was then diluted with PBS to provide a solution having a Biotin-F or Biotin-ED concentration of 100 nM. 20 μL aliquots of the resulting Biotin-F or Biotin-ED solution in PBS was then added to the wells of a 96 well black assay plate. Solutions of streptavidin in PBS having a streptavidin concentration ranging from 0 to 100 nM were prepared and added (180 μL) to the Biotin-F or Biotin-ED solution in the plate. The plate was incubated for 30 min at room temperature and the fluorescence intensities then recorded.

[3] = test system: α-Cholic Acid antibody; assay: Fluorescence quenching of CA-Fl with anti-cholic acid antibody in PBS (Example 41); assay type: binding
Description: A working solution of CA-Fl in PBS (100 nM) was prepared. The working solution was then combined with various equivalents of α-Cholic Acid antibody (1:1, v/v) (commercially available from Fitzgerald Industries of the Netherlands). The fluorescence was measured as a function of the ratio of antibody (Ab) to CA-Fl. The results are depicted in FIG. 33. […] The higher the ratio of antibody to CA-Fl tracer, the greater the amount of quenching.

[4] = test system: anti-cefotaxime polyclonal antibody; assay: Fluorescence of CEF-F with anti-cefotaxime antibody (Example 25); assay type: binding; conditions: tracer and antibody 200 nM
Description: Beta lactam antibiotics conjugated to fluorescein (i.e., AMO-FITC, AMO-F, AMP-F, and CEF-F) in PBS (400 nM, 100 μL) were mixed with either anti-penicillin or anti-cefotaxime polyclonal antibody (400 nM, 100 μL, commercially available from Novus Biologicals, LLC of Centennial, CO) in the absence of and in the presence of free beta-lactam antibiotic (ampicillin (400 nM) was added to AMP-F and cefotaxime (400 nM) was added to CEF-F) in a 96 well black assay plate. […] The solutions were incubated at room temperature for 5 min and the fluorescence intensity measured.

[5] = test system: Polyclonal anti-melamine antibody (Anti-Mel-Ab); assay: Fluorescence of mixtures of melamine fluorescent tracers and anti-melamine antibody (Example 15); assay type: binding; conditions: tracer 30 nM, Anti-Mel-Ab 0 to 300 nM, PBS, ex 490 nm/em 520 nm
Description: Various substituted fluorescent tracers wherein melamine is conjugated to fluorescein were dissolved in DMSO (1 mM) and diluted in phosphate buffered saline (PBS) (pH=7.3) to provide a melamine tracer solution (1.2 μM). The following melamine tracers were used:
Polyclonal anti-melamine antibody (Anti-Mel-Ab, 4.65 mg/ml, commercially available from Meridian Life Sciences Inc. (Biodesign) of Memphis, TN) was diluted in PBS and serially diluted to provide Anti-Mel-Ab solutions having Anti-Mel-Ab concentrations ranging from 0 to 300 nM. The melamine tracer solutions (5 μL) were mixed with each Anti-Mel-Ab solution (195 μl) in a 96 well black assay plate with non-binding surface (commercially available from Corning Inc. of Corning, NY) to provide solutions having different molar ratios of the Anti-Mel-Ab to the melamine tracer. The concentration of the melamine tracer was 30 nM. The plate was gently shaken for 30 min at room temperature. The fluorescence intensities of each solution was then measured using a fluorescence plate reader (Synergy 4 Microplate Reader, commercially available from BioTek Instruments, Inc. of Winooski, VT) using an excitation wavelength of 490 nm and reading the emission at 520 nm.
Unless otherwise indicated, an excitation wavelength of 490 nm and reading the emission at 520 nm were used throughout the examples. […]

[6] = test system: Anti-Mel-Ab; assay: Fluorescence of Mel-F and Anti-Mel-Ab in PBS, serum and diluted serum with and without melamine (Example 17); assay type: binding; conditions: each solution: PBS, canine serum, serum diluted 1 in 10
Description: To a solution of Mel-F in PBS (1 μM, 6 μL) and to a mixture of Mel-F in PBS (1 μM, 6 μL) and Anti-Mel-Ab (1 μM, 6 μL) in the absence of and in the presence of melamine (2 μM, 6 μL) was added PBS, serum, or diluted serum (i.e., serum diluted 1 in 10 with PBS) to provide a final volume of 200 μL.

[7] = test system: anti-SDMA antibody; assay: SDMA dose response with SDMA tracer/SDMA antibody solution (Example 34); assay type: binding; conditions: SDMA 0 to 100 μg/dL added to SDMA-DFF, SDMA-DCF or SDMA-Fl tracer/antibody solution
Description: Solutions of various SDMA tracers (SDMA-Fl, SDMA-DFF, and SDMA-DCF) in PBS (with 0.1% Tween) were prepared at a concentrations 400 nM. Solutions of anti-SDMA antibody or anti-SDMA antibody conjugated to BHQ10 (4 eq.) in PBS were prepared at concentrations of 400 and 800 nM, respectively.
SDMA standard solutions were prepared by serially diluting SDMA in PBS (with 0.1% Tween) to provide a final SDMA concentration of 100, 50, 25, 12,5, 6.26, 0 μg/dL.
50 μl of each SDMA standard solution was added to the well of a 96-well UV transparent plate. 50 μl of the SDMA tracer/SDMA antibody solution was then added to each well, the resulting solution mixed well by shaking, and incubated at room temperature for 30 min.

[8] = test system: anti-T4-Mab; assay: Fluorescence of T3-F and anti-T4-Mab after lyophilization (Example 22); conditions: T3-F and/or anti-T4-Mab lyophilized to dryness, reconstituted in PBS or charcoal treated horse serum
Description: T3-F (1.7 mg) was dissolved in 0.85 ml DMSO to provide a stock solution (2 mM). The T3-F stock solution was then diluted in PBS to provide a 1 μM working solution that was separated into two vials (1 mL each). To the first vial was added PBS (9 mL) and to the second vial was added PBS (8.9 mL) plus anti-T4 Mab (15 μM, 0.1 mL). The vials were mixed well and incubated for 30 min at room temperature. The fluorescence intensities for each solution (200 μL) was determined. Aliquots of each solution (200 μL) were then placed into wells of a 96 well black assay plate and lyophilized to dryness. To the dried residues was added 200 μL PBS, horse serum that had been treated with charcoal (i.e., the serum was “charcoal stripped” by dialyzing the serum in PBS buffer containing charcoal for at least three buffer changes to remove small molecules from the serum), or horse serum that had been treated with charcoal containing T4 (10 μg/dL) and the plate incubated for 30 min at room temperature. Fluorescence intensities were then recorded again.

[9] = test system: anti-T4-Mab; assay: Fluorescence of T3 tracers and anti-T4-Mab in the presence of T4 (Example 20); assay type: binding
Description: Similar solutions were prepared and the fluorescence measured except that the T3-F was replaced with T3-5-F, T3-E-F and T3-FITC.

[10] = test system: anti-T4 antibody; assay: Maximum percentage fluorescence quenching of T2-F, T3-F, T4-F by anti-T4 antibody with and without quencher label (Example 27 table); assay type: binding
Description: In another experiment, tracer T2-F, T3-F, or T4-F was dissolved in DMSO to provide a DMSO solution at a tracer concentration of 1 mM. The DMSO solution was then diluted with phosphate buffered saline (“PBS”) to provide a stock solution of each tracer at a concentration of 10 μM. Monoclonal anti-T4-Mab or anti-T4-Mab conjugated to a quencher (Cy3-Ab, IRdyeQC1-Ab, Cy5-Ab, BHQ1-Ab) were serially diluted in PBS to provide solutions having an Anti-T4-Mab or anti-T4-Mab conjugated to quencher at concentration ranging from 0 to 2 μM. In a 96 well black assay plate containing the serially diluted Anti-T4-Mab or anti-T4-Mab conjugated to quencher (95 μL) was added the tracer T2-F, T3-F, or T4-F solution (5 μL), mixed well, and incubated for 30 min and the fluorescence intensities then recorded at an excitation wavelength of 485 nm and an emission wavelength of 520 nm. The results of maximum percentage fluorescence quenching for different tracers and quencher-modified antibodies are provided in the following Table: […]

streptavidin, sequence (P22629 25-183, species assumed): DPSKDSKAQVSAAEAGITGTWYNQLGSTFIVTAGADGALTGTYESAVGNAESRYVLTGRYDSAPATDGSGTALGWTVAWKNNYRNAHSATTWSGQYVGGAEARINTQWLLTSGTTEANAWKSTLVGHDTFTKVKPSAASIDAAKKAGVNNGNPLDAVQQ

C[C@]12CCC(=NOCC(=O)NCc3c(O)ccc4c(-c5ccccc5C(=O)O)c5ccc(=O)cc-5oc34)C=C1CCC1C2[C@@H](O)C[C@@]2(C)C1CC[C@]2(O)C(=O)CO (stereo in doubt) [Cortisol-4-Fl]
fluorescence quenching on complex formation with cortisol antibody [1]: quenched

O=C(CCCCC1SCC2NC(=O)NC21)NCc1c(O)ccc2c(-c3ccccc3C(=O)O)c3ccc(=O)cc-3oc12 (stereo not shown) [Biotin-F, Biotin-Fluorescein]
quenching efficiency [2]: 70%

C[C@H](CCC(=O)NCc1c(O)ccc2c(-c3ccccc3C(=O)O)c3ccc(=O)cc-3oc12)[C@H]1CC[C@H]2[C@@H]3[C@H](O)C[C@@H]4C[C@H](O)CC[C@]4(C)[C@H]3C[C@H](O)[C@]12C [CA-Fl, Cholic Acid-Fluorescein Conjugate]
fluorescence quenching on complex formation with α-Cholic Acid antibody [3]: quenched

CO/N=C(\C(=O)NC1C(=O)N2C(C(=O)NCc3c(O)ccc4c(-c5ccccc5C(=O)O)c5ccc(=O)cc-5oc34)=C(COC(C)=O)CSC12)c1csc(N)n1 (stereo not shown) [CEF-F, Cefotaxime-Fluorescein]
fluorescence quenching by anti-cefotaxime antibody [4]: quenched

Nc1nc(N)nc(NCc2c(O)ccc3c(-c4ccccc4C(=O)O)c4ccc(=O)cc-4oc23)n1 [Mel-F, Melamine-Fluorescein]
degree of fluorescence quenching compared to the other melamine tracers [5]: highest degree of quenching
fluorescence of Mel-F after quenching by Anti-Mel-Ab relative to original value [6]: about one-half of the original value

C/N=C(\NC)NCCC[C@H](N)C(=O)O [SDMA, symmetrical dimethylarginine]
fluorescence intensity as a function of SDMA concentration [7]: a dose response is observed

O=C(O)c1ccccc1-c1c2ccc(=O)cc-2oc2c(CNC(Cc3cc(I)c(Oc4ccc(O)c(I)c4)c(I)c3)C(=O)O)c(O)ccc12 (stereo not shown) [T3-F]
assay performance after lyophilization of reagents [8]: effective
fluorescence quenching by anti-T4-Mab ([9]; PBS, tracer and antibody equimolar): quenched
time to stable fluorescence signal ([9]; quenching by anti-T4-Mab and recovery after addition of T4): ≤ 10 min
Percentage of fluorescence quenching, BHQ1-Ab ([10]; anti-T4-Mab conjugated to BHQ1): 30%
Percentage of fluorescence quenching, Cy5-Ab ([10]; anti-T4-Mab conjugated to Cy5): 40%
Percentage of fluorescence quenching, Ab ([10]; anti-T4-Mab without quencher): 30%

— patent US12345641B2, “Fluorescence quenching immunoassay” (IDEXX Laboratories, Inc., priority 2020, dated 2025)
